# Assay results from US8637237B2, “Methods, compositions, and systems for the identification of species-specific or developmental stage-specific insecticides” (The University of North Carolina at Greensboro, priority 2003, dated 2014).
# Target: T1, FXR (Rattus norvegicus, UniProt Q62735)
# T1 sequence (Q62735 1-469): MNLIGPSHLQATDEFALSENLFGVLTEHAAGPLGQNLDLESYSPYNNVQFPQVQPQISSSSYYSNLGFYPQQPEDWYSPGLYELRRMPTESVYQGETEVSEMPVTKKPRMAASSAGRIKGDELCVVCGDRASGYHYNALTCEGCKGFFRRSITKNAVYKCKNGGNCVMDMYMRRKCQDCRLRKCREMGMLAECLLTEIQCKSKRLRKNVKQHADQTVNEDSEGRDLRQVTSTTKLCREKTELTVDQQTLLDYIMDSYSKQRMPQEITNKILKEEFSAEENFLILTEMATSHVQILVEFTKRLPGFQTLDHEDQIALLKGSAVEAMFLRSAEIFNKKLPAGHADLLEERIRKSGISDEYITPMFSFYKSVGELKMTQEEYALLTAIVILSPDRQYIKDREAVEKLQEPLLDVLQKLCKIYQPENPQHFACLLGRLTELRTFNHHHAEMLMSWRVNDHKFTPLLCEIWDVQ
# T1 sequence (P28700 1-467 partner): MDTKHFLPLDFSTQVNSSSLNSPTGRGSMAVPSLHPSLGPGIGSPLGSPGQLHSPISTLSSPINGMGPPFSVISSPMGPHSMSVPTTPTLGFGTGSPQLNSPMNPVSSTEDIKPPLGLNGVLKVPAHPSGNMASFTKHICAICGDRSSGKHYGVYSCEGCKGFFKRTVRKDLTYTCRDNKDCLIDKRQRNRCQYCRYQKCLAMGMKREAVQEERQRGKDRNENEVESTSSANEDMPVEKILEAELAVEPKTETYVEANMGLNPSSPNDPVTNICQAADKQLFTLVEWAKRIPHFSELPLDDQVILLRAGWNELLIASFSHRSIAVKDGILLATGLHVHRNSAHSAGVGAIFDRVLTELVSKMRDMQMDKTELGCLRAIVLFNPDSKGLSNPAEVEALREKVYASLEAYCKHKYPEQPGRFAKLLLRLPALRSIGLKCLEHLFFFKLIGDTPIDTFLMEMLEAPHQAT
# Experiment: cell-based
# Description: These experiments employed a mammalian cell culture system using Chinese hamster ovary cells (CHO) to evaluate the transcriptional function of Drosophila melanogaster EcR and USP using methods described previously (U.S. Patent Application Publication No: 2005/0049230; Henrich et al, 2003). Cells were seeded in 6-well polypropylene culture plates (Falcon) with 10^5 cells per well on the day prior to transfection. Transfection was subsequently performed using either calcium phosphate (Kitareewan et al., 1996, Mol. Biol. Cell, 7:1153-1196) or a GenePorter reagent (Gene Therapy Systems, Inc; San Diego, Calif.) following manufacturer's protocols. Each well received 1.25 μg of (EcRE)5-ΔMTV-CAT (five copies of the hsp27 EcRE inserted into an mouse mammary tumor virus (MTV) promoter upstream of the chloramphenicol acetyltransferase (CAT) gene) or (EcRE)5-ΔMTV-LUC (the same promoter attached to firefly luciferase), 1.25 μg of pCH111 (SV40 early promoter linked to the β-galactosidase gene) to normalize CAT activity, and 0.25 μg of each expression plasmid (EcR, FXR, RXR, USP) that was tested. The cells were incubated with plasmid DNA for seven hours and then washed with 1×PBS. Muristerone A (murA; Alexis Biochemicals) or 20-hydroxyecdysone (20E; Sigma) dissolved in ethanol to a concentration of 10 mM was diluted as necessary to the final assay concentration (FAC) in 2 ml of fresh incubation medium that was then applied to the cells. Similarly, JHIII (Sigma) was dissolved in dimethyl sulfoxide (DMSO) to a concentration of […] and diluted into the incubation medium to its final assay concentration (20, 40, 80, 160 μM). […] A corresponding volume of ethanol and DMSO were added to control cells for all experiments. For all experiments, the cells were allowed to incubate with the medium for 24 hours before collection and cell lysates were prepared by described methods (Kitareewan et al., 1996). Both β-galactosidase and CAT reporter activity were measured based on previously used methods (Kitareewan et al, 1996). Luciferase assays using luciferrin followed the specifications of the manufacturer.
# Transcriptional activity, measured as ^14C-chloramphenicol counts (for measuring CAT activity) or relative luciferase activity (RLU) was quantified for each cell lysate. The counts were then normalized by adjusting for differences in β-galactosidase activity, since β-galactosidase expression is controlled by a constitutive promoter and provides an estimate of cell mass. Data were normalized as fold-induction based on differences in reporter gene activity between hormonally treated and control cells.
# In these experiments, candidate juvenoids were tested for their ability to activate FXR mediated transcription by transfecting Chinese hamster ovary (CHO) cells using the FXR plasmid, mouse RXRα, and the ΔMTV-(EcRE)5-CAT reporter as described herein. An RXR-dependent CRBPII-CAT reporter plasmid was employed in parallel assays to discern activators specific for this receptor.
# [1] = dose 20 μM, 1 = no increase over vehicle
smiles,measurement,setting,value
CC(C)(O)/C=C/C(=O)[C@](C)(O)[C@H]1[C@H](O)C[C@@]2(C)[C@@H]3CC=C4[C@@H](C=C(O)C(=O)C4(C)C)[C@]3(C)C(=O)C[C@]12C [cucurbitacin I],IC50,"read-out: IC50, inhibition of farnesol-induced FXR activity, data not shown",~0.05 µM
COc1cc(/C=C/C(=O)CC(=O)/C=C/c2ccc(O)c(OC)c2)ccc1O [curcumin],"FXR-dependent activity, induction",dose not stated,ineffective
CCCC(=O)Nc1ncnc2c1ncn2[C@@H]1O[C@@H]2COP(=O)(O)O[C@H]2[C@H]1OC(=O)CCC [dibutyryl cAMP],"FXR-dependent activity, induction",1 mM,4 fold
C[C@H]([C@H](O)CCC(C)(C)O)[C@H]1CC[C@@]2(O)C3=CC(=O)[C@@H]4C[C@@H](O)[C@@H](O)C[C@]4(C)[C@H]3CC[C@]12C [ecdysone],"FXR-dependent activity, induction",dose not stated,unresponsive
C=CC(C)(O)CCCC/C=C(\C)CC(C)=O (stereo not shown) [echinolone],"FXR-dependent activity, maximal induction",maximal (highest non-cytotoxic) dose,7 fold
CC12CCC(C1)C(C)(C)C2=O (stereo not shown) [fenchone],"FXR-dependent activity, induction",0.5 mM,inactive
CC12CCC(C1)C(C)(C)C2O (stereo not shown) [fenchyl alcohol],"FXR-dependent activity, induction",0.5 mM,5 fold
N#Cc1nn(-c2c(Cl)cc(C(F)(F)F)cc2Cl)c(N)c1[S+]([O-])C(F)(F)F (stereo not shown) [fipronil],"FXR-dependent activity, induction",25 μM,20 fold
O=c1c(-c2ccc(O)cc2)coc2cc(O)cc(O)c12 [genistein],"FXR-dependent CAT activity, induction",50 μM,unresponsive
O=c1c(O)c(-c2ccc(O)c(O)c2)oc2c(O)c(O)cc(O)c12 [gossypetin],"FXR-dependent CAT activity, induction",50 μM,unresponsive
O=c1[nH]cnc2nc[nH]c12 [hypoxanthine],"FXR-dependent activity, induction",dose not stated,ineffective
O=[N+]([O-])NC1=NCCN1Cc1ccc(Cl)nc1 [imidacloprid],"FXR-dependent activity, induction",dose not stated,unaffected
COP(=S)(OC)SCN1C(=O)c2ccccc2C1=O [imidan],"FXR-dependent activity, induction",dose not stated,inactive
"CC1=C[C@]23C(=O)[C@@H](C=C(COC(=O)c4ccccc4)[C@@H](O)[C@]2(O)[C@H]1OC(=O)c1ccccc1)[C@H]1[C@@H](C[C@H]3C)C1(C)C [ingenol-3,20-dibenzoate]","FXR-dependent activity, induction",10 μM,5 fold
same,FXR ACTIVITY (fold-induction),dose 10 μM,5 fold-induction
CC1=C[C@]23C(=O)[C@@H](C=C(CO)[C@@H](O)[C@]2(O)[C@H]1O)[C@H]1[C@@H](C[C@H]3C)C1(C)C [ingenol],"FXR-dependent activity, induction",dose not stated,inactive
CC/C=C\C[C@H]1C(=O)CC[C@@H]1CC(=O)O [jasmonic acid],"FXR-dependent activity, induction",1 mM,no effect
COC(=O)C1=CC[C@H]([C@H](C)CC(=O)CC(C)C)CC1 [juvabione],"RXR mediated transcription, increase",plant-derived JH agonists examined as FXR effectors,3 fold
C[C@@]12C=Cc3occc3[C@H]1CC[C@@]13C[C@@H](CC[C@H]12)[C@@](O)(CO)C3 [kahweol],FXR ACTIVITY (fold-induction),[1],10 fold-induction
O=C1C2(Cl)C3(Cl)C4(Cl)C(Cl)(Cl)C5(Cl)C3(Cl)C1(Cl)C5(Cl)C24Cl (stereo not shown) [kepone],"FXR-dependent CAT activity, induction",5 μM,12 fold
C=C(C)C1CCC2(C)OC2C1 (stereo not shown) [limonene oxide],"FXR-dependent activity, induction",400 μM,inactive
Cl[C@H]1[C@H](Cl)[C@@H](Cl)[C@@H](Cl)[C@H](Cl)[C@H]1Cl [lindane],"FXR-dependent CAT activity, induction",5 μM,5 fold
CC1CCC(C(C)C)C(O)C1 (stereo not shown) [menthol],"FXR-dependent activity, induction",0.5 mM,inactive
CC/C=C\CC1C(=O)CCC1CC(=O)OC (stereo not shown) [methyl jasmonate],"FXR-dependent activity, induction",1 mM,17 fold
same,FXR ACTIVITY (fold-induction),dose 1000 μM,18 fold-induction
C=C(C)[C@@]12O[C@@]3(c4ccccc4)O[C@@H]1[C@@H]1[C@@H]4O[C@]4(CO)[C@@H](O)[C@]4(O)C(=O)C(C)=C[C@H]4[C@@]1(O3)[C@H](C)[C@H]2OC(=O)/C=C/C=C/c1ccccc1 [mezerein],"FXR-dependent activity, induction",10 μM,3 fold
"Clc1ccc(C(c2ccc(Cl)cc2)C(Cl)(Cl)Cl)cc1 [p,p-DDT]","FXR-dependent CAT activity, induction",5 μM,not
"C=C(C)[C@@H]1CC=C(CO)CC1 [perillyl alchol, perillyl alcohol]",FXR ACTIVITY (fold-induction),"dose 300 μM, 1 = no increase over vehicle",4 fold-induction
same,"FXR-dependent activity, induction",dose not stated,4 fold
OCCc1ccccc1 [phenethyl alcohol],"FXR-dependent activity, induction",400 μM,inert
CC(C)=CC1C(C(=O)OCc2cccc(Oc3ccccc3)c2)C1(C)C (stereo not shown) [phenothrin],"FXR-dependent activity, induction",25 μM,8 fold
"CCCC(=O)O[C@@H]1[C@@H](C)[C@@]2(O)[C@@H](C=C(CO)C[C@]3(O)C(=O)C(C)=C[C@@H]23)[C@@H]2C(C)(C)[C@]12OC(=O)CCC [phorbol 12,13-dibutyrate]","FXR-dependent activity, induction",10 μM,2 fold
CC1(C)[C@@H]2C[C@H]1[C@@](C)(O)[C@@H](O)C2 [pinane diol],"FXR-dependent activity, induction",0.5 mM,5 fold
OCc1ccc2c(c1)OCO2 [piperonyl alcohol],"FXR-dependent activity, induction",dose not stated,inactive
O=C(O)c1ccc2c(c1)OCO2 [piperonylic acid],"FXR-dependent activity, induction",dose not stated,inactive
COc1cc2c(cc1OC)OC(C)(C)C=C2 [precocene II],"FXR-dependent activity, induction",dose not stated,15 fold
same,EC50,read-out: EC50 for FXR-dependent CAT activity,150 µM
CC(COc1ccc(Oc2ccccc2)cc1)Oc1ccccn1 (stereo not shown) [pyriproxyfen],FXR ACTIVITY (fold-induction),"final dose of 50 ∝M, 1 = induction less than 2-fold below cytotoxic doses",9 fold-induction
O=C(/C=C/c1ccc(O)c(O)c1)O[C@H](Cc1ccc(O)c(O)c1)C(=O)O [rosemarinic acid],"FXR-dependent activity, induction",dose not stated,ineffective
C=C(C)[C@H]1Cc2c(ccc3c2O[C@@H]2COc4cc(OC)c(OC)cc4[C@@H]2C3=O)O1 [rotenone],FXR ACTIVITY (fold-induction),[1],1 fold-induction
same,"FXR-dependent activity, induction",dose not stated,inactive
COc1cc2c(cc1OC)[C@@H]1C(=O)c3ccc(O)c(CC=C(C)C)c3O[C@@H]1CO2 [rotenonic acid],"FXR-dependent CAT activity, induction",20 μM,20 fold
same,FXR ACTIVITY (fold-induction),[1],20 fold-induction
COc1cc(C2Oc3cc([C@H]4Oc5cc(O)cc(O)c5C(=O)[C@@H]4O)ccc3OC2CO)ccc1O (stereo partly shown) [silybin],"FXR-dependent CAT activity, induction",50 μM,18 fold
same,FXR ACTIVITY (fold-induction),"dose 100 μM, 1 = no increase over vehicle",10 fold-induction
COc1ccc(-c2cc(=O)c3c(OC)c(OC)c(OC)c(OC)c3o2)cc1 [tangeretin],"FXR-dependent CAT activity, induction",50 μM,4 fold
O=C1c2c(O)cc(O)cc2O[C@H](c2ccc(O)c(O)c2)[C@H]1O [taxifolin],"FXR-dependent CAT activity, induction",50 μM,unresponsive
"Clc1cc2c(cc1Cl)Oc1cc(Cl)c(Cl)cc1O2 [tetrachloro- dibenzo-p- dioxin, 2,3,7,8-tetrachlorodibenzo-p-dioxin]","FXR-dependent CAT activity, induction",100 nM,15 fold
same,FXR ACTIVITY (fold-induction),dose 0.1 μM,15 fold-induction
Cn1cnc2c1c(=O)[nH]c(=O)n2C [theobromine],"FXR-dependent activity, induction",dose not stated,ineffective
O=c1[nH]c(=O)c2[nH]cnc2[nH]1 [xanthine],"FXR-dependent activity, induction",dose not stated,ineffective
CC(=O)/C=C/C1C(C)=CCCC1(C)C (stereo not drawn) [α-ionone],FXR ACTIVITY (fold-induction),dose 150 μM,10 fold-induction
